Data set [1] relates to KAP organoids. As to the kind of experiment: cell viability in KAP organoids (CellTiter-Glo). It is filed as cell-based, mouse. The conditions noted are these: for induction of cell death in KAP organoids (in words): viability assay. The procedure:
For in vitro treatment studies, organoids were mechanically dissociated and digested using TrypLE supplemented with 100 µg ml^−1 DNaseI and 10.5 µM Y-27632 dihydrochloride (Invitrogen) at 37 °C. A total of 1,000–2,000 single cells were plated per well in white 96-well plates (Greiner) in culture medium containing 10% GFR Matrigel or Cultrex BME. The treatment with doxycycline (5 µg ml^−1), pharmacological inhibitors or corresponding volumes of DMSO was started 24 h after plating. Doxycycline was obtained from Sigma-Aldrich. […] Cell viability was measured by means of CellTiter-Glo 3D or CellTiter-Glo 2.0 reagent (Promega) according to the manufacturers’ instructions and the Infinite M Plex reader (Tecan, i-control version 3.9.1 software). Results were normalized to vehicle (DMSO) or to shNC. For cell-doubling assays, the cell number was quantified at the corresponding time points using Guava EasyCyte flow cytometer (Luminex, CytoSoft v5.2 software).
(In general: Cellular ATP, detected with luciferase, serves as a proxy for viable cell number.)

Data set [2] concerns the target p38α (Homo sapiens, UniProt Q16539). As to the kind of experiment: p38α inhibition on isolated enzyme (ELISA, ATF2 substrate). The class given is biochemical. To be noted: Fig. 2d; replicates.
Method: For evaluating p38α inhibition on isolated enzyme, an ELISA assay was performed[57]. […] Compounds were dissolved in DMSO (10 mM) and diluted (0.01–10 µM) in a kinase buffer containing 12 ng per 50 µl p38α protein (provided by J. Schultz, University of Tübingen), 50 mM Tris pH 7.5, 10 mM MgCl2, 10 mM β-glycerophosphate, 100 µg ml^−1 BSA, 1 mM dithiothreitol, 0.1 mM Na3VO4 and 100 µM ATP. Then, 50 µl of each sample was pipetted into the corresponding wells and incubated for 1 h at 37 °C. […] Finally, 50 µl of TMB substrate (BD Bioscience) was added to the wells. After 5 min, the reaction was stopped by adding 25 µl of 1 N HCl and the samples were measured photometrically at 450 nm with an ELISA reader (Molecular Devices, FilterMax F5) using SOFTmax PRO software (version 6.5.1).
Data set [3] concerns subcutaneous KAP CRCs. As to the kind of experiment: treatment of subcutaneous KAP tumors in wild-type mice. The class given is in vivo, mouse. To be noted: 6 d of treatment; single tumors; Fig. 5i.
Method: Subcutaneous injection, splenic seeding or cecum injection of organoids was performed in 8–10-week-old C57BL/6 N/Crl, Rag2^−/− (B6.Cg-Rag2^tm1.1Cgn/J), or CB17 Scid beige (CB17.Cg-Prkdc^scidLyst^bg-J/Crl) mice, obtained from Charles River. The organoids were dissociated into single cells, washed with PBS and injected in a 1:1 mixture of PBS and Matrigel. For murine organoids, 1 × 10^5 cells were injected into the left and right flanks or the spleen capsule and 2 × 10^6 cells were injected into the cecum wall. For human organoids, 4 × 10^5 cells were injected into the flanks of CB17 Scid beige mice. For splenic seeding and cecum injection, mice were anaesthetized using ketamine (100 mg kg^−1, intraperitoneally) and xylazin (10 mg/kg, intraperitoneally) in NaCl and a small laparotomy below the thorax was performed.
No mice were excluded during treatment studies.
Data set [4] can be described thus: cell viability after 2015, Navitoclax or 2015 + Navitoclax (Fig. 5f). The class given is cell-based. Set-up: concentration or dose not given beside the values. The conditions noted are these: replicates.
Setting [5] is: Mus musculus, 24 h, read-out: Cell viability (%), Fig. 1d, replicates.

Several values for one entry are separate records, joined by “and”; a condition that tells them apart may be missing. Identical values can stand only once. Like-named read-outs stand apart in the source and are kept apart here.

Consider six compounds from PMC11864979, “First-in-class ultralong-target-residence-time p38α inhibitors as a mitosis-targeted therapy for colorectal cancer” (Nature Cancer, 2025).

Chain of p38α (Q16539 whole entry): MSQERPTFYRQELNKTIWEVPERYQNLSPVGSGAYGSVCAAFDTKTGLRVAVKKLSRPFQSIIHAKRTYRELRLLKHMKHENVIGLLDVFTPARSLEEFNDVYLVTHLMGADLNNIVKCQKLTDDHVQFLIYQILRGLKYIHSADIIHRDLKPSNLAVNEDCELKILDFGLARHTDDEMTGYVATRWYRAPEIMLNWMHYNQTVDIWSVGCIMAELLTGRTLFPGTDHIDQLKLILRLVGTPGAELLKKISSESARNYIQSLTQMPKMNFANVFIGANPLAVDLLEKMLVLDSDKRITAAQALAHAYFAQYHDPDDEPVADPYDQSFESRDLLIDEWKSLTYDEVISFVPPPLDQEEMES

Regarding `Cc1ccc(-n2nc(C(C)(C)C)cc2NC(=O)Nc2ccc(OCCN3CCOCC3)c3ccccc23)cc1` [BIRB-796, reference compound], in data set [1], the “induction of cell death in KAP organoids (in words)” value (“induction of cell death” below) was “failed to inhibit p38α downstream signaling and induce cell death”.

For the compound `CC(C)(C)Cn1c(N)nc2ccc(-c3[nH]c(C(C)(C)C)nc3-c3ccc(F)cc3)nc21` [LY222820], the IC50 (in general, the concentration that gives 50% inhibition) in data set [2] was 7.81 nM and 4.31 nM and 10.9 nM.

`CC(C)(C)Cn1c(N)nc2ccc(-c3[nH]c(C(C)(C)C)nc3-c3ccc(F)cc3)nc21` [LY2228820, ralimetinib, reference compound]: the viability at 5 µM in data set [1] (Mus musculus, 24 h, read-out: Cell viability (%), Fig. 1d, 5 µM, replicates) was found to be 93.3%. Moreover, the viability at 10 µM in data set [1] (setting [5]) was 77.8%. Also, the “induction of cell death” value in data set [1] is “only a very weak induction of cell death”.

With `CNC(=O)c1ccc(C)c(-n2c(C)cc(OCc3ccc(F)cc3F)c(Br)c2=O)c1` [PH797804], the viability at 1 µM in data set [1] (Mus musculus, 24 h, read-out: Cell viability (%), Fig. 1d, 1 µM, replicates) was found to be 92.1%; in data set [1] (Mus musculus, read-out: Cell viability (% of DMSO), drug screen in KAP organoids, 1 µM concentration, n = 3, mean), 86.2%. The viability at 10 µM in data set [1] (setting [5]) is 84.1%.

Regarding `CNC(=O)c1ccc(C)c(-n2c(C)cc(OCc3ccc(F)cc3F)c(Br)c2=O)c1` [PH-797804, reference compound], the “induction of cell death” value in data set [1] is reported as “only a very weak induction of cell death”.

Take `CC1(C)CCC(c2ccc(Cl)cc2)=C(CN2CCN(c3ccc(C(=O)NS(=O)(=O)c4ccc(N[C@H](CCN5CCOCC5)CSc5ccccc5)c(S(=O)(=O)C(F)(F)F)c4)cc3)CC2)C1` [navitoclax, reference compound]: the Tumor volume in data set [3] is 87.5 mm³ and 126.0 mm³ and 144.0 mm³ and 112.5 mm³ and 100.0 mm³. In data set [1], the “induction of cell death” value is on record as “no therapeutic response”. For the same compound, the Cell viability in data set [4] is 100.49% and 78.37% and 85.69%.
